The test system of experiment [1] is Mus musculus. The experiment can be described thus: Analgesic activity in mouse at 100 mg/kg, ip measured after 60 mins at 58 degC by hot plate method. The format is functional. (Thermal pain tests record how soon the animal reacts.)
For experiment [2], the system named is Mus musculus. The experiment can be described thus: Anti-inflammatory activity in mouse model of xylene-induced ear edema assessed as inhibition of ear edema at 10 to 30 mg/kg, ip pre-treated before xylene injection and measured 1 hr post xylene injection relative to untreated control. The class given is functional, organism-based.
In experiment [3] the test system is Mus musculus. The experiment can be described thus: Anti-inflammatory activity in mouse model of xylene-induced ear edema assessed as inhibition of ear edema at 100 mg/kg, ip pre-treated before xylene injection and measured 1 hr post xylene injection relative to untreated control. The format is functional.
For experiment [4], the system named is Mus musculus. As to the kind of experiment: Analgesic activity in mouse at 20 mg/kg, ip measured after 60 mins at 58 degC by hot plate method. The class given is functional.
The subject of experiment [5] is Mus musculus. As to the kind of experiment: Anti-inflammatory activity in mouse model of xylene-induced ear edema assessed as inhibition of ear edema at 10 mg/kg, ip pre-treated before xylene injection and measured 1 hr post xylene injection relative to untreated control. The class given is functional.
The subject of experiment [6] is Mus musculus. As to the kind of experiment: Anti-inflammatory activity in mouse model of xylene-induced ear edema assessed as inhibition of ear edema at 20 mg/kg, ip pre-treated before xylene injection and measured 1 hr post xylene injection relative to untreated control. The class given is functional.
The test system of experiment [7] is Mus musculus. The experiment can be described thus: Analgesic activity in mouse at 30 mg/kg, ip measured after 60 mins at 58 degC by hot plate method. The class given is functional.
The test system of experiment [8] is Mus musculus. The experiment can be described thus: Analgesic activity in mouse at 10 mg/kg, ip measured after 60 mins at 58 degC by hot plate method. The format is functional.
Experiment [9] concerns Mus musculus. As to the kind of experiment: Anti-inflammatory activity in mouse model of xylene-induced ear edema assessed as inhibition of ear edema at 30 mg/kg, ip pre-treated before xylene injection and measured 1 hr post xylene injection relative to untreated control. The class given is functional.
In experiment [10] the target is T1, Prostaglandin G/H synthase 1 (Ovis aries, UniProt P05979).
T1 sequence (P05979 whole entry): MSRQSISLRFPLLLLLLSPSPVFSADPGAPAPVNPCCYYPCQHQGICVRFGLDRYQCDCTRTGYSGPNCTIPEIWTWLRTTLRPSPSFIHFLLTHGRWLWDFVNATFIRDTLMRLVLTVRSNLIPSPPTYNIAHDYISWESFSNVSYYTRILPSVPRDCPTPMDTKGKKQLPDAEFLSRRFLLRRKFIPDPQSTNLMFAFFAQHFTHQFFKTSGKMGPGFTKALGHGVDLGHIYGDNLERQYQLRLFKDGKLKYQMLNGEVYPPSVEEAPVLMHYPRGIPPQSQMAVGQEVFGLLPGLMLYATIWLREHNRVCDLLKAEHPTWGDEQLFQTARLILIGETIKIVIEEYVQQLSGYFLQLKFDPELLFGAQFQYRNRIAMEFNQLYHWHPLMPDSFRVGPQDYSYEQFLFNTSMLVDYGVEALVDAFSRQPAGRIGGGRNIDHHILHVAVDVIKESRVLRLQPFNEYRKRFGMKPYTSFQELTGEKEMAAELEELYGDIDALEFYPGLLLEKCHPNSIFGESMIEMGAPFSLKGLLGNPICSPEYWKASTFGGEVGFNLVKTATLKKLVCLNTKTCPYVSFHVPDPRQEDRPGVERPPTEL
The experiment can be described thus: Inhibition of ovine COX1.

The record followed here is ChEMBL document CHEMBL4033746, “Synthesis, potential anti-inflammatory and analgesic activities study of (S)-N-substituted-1-phenyl-3,4-dihydroisoquinoline-2(1H)-carboxamides” (Bioorg Med Chem Lett, 2017).

As to `O=C(Nc1c(Cl)cccc1Cl)N1CCc2ccccc2[C@@H]1c1ccccc1`, the Activity with Mus musculus [1] is 100%. Besides, the inhibition entry in the experiment on Mus musculus [2] was “Dose-dependent effect”. Also, the inhibition in vivo at 100 mg/kg with Mus musculus [3] is 92.7%.
With `O=C(Nc1cccc(Br)c1)N1CCc2ccccc2[C@@H]1c1ccccc1`, the Activity is 89.8% in the experiment on Mus musculus [1], 63.7% with Mus musculus [4], 80.2% in the experiment on Mus musculus [7] and 58.7% in the experiment on Mus musculus [8]. In the experiment on Mus musculus [3], the inhibition in vivo at 100 mg/kg is 83.1%. The inhibition in vivo at 10 mg/kg in the experiment on Mus musculus [5] was 44.2%. The inhibition in vivo at 20 mg/kg with Mus musculus [6] is 51.7%. Also, in the experiment on Mus musculus [9], the inhibition in vivo at 30 mg/kg was 61.2%. The compound further had an IC50 in experiment [10] of 7.85 µM.
Regarding `O=C(Nc1cccc(Cl)c1)N1CCc2ccccc2[C@@H]1c1ccccc1`, the Activity in the experiment on Mus musculus [1] was determined as 100%. The inhibition in vivo at 100 mg/kg in the experiment with Mus musculus [3] was found to be 88%.
The corresponding values for `COc1cccc(NC(=O)N2CCc3ccccc3[C@@H]2c2ccccc2)c1` are 94.6% and 85.9%.
In the case of `O=C(Nc1ccccc1)N1CCc2ccccc2[C@@H]1c1ccccc1`, the Activity in the experiment on Mus musculus [1] was 100%; with Mus musculus [4] it was 76.4%; in the experiment with Mus musculus [7], 87.2%; with Mus musculus [8] it was 69.6%. The inhibition entry in the experiment with Mus musculus [2] was “Dose-dependent effect”. In the experiment on Mus musculus [3], the inhibition in vivo at 100 mg/kg was found to be 95%. The inhibition in vivo at 10 mg/kg with Mus musculus [5] is 60.3%. Besides, the inhibition in vivo at 20 mg/kg with Mus musculus [6] was determined as 69.5%. Further, the inhibition in vivo at 30 mg/kg with Mus musculus [9] stood at 74.7%. In experiment [10], half-maximal inhibition (IC50) was put at 5.42 µM.
Regarding `O=C(Nc1cccc(F)c1)N1CCc2ccccc2[C@@H]1c1ccccc1`, in the experiment on Mus musculus [1], the Activity was 89.8%. Besides, the inhibition in vivo at 100 mg/kg in the experiment with Mus musculus [3] amounted to 84.9%.
The corresponding values for `O=C(N(c1ccccc1)c1ccccc1)N1CCc2ccccc2[C@@H]1c1ccccc1` are 73.3% and 86.3%.
`COc1ccc2c(c1)c(CC(=O)O)c(C)n2C(=O)c1ccc(Cl)cc1` [INDOMETHACIN]: the Activity was found to be 98.6% in the experiment with Mus musculus [1] and 73.7% in the experiment with Mus musculus [8]. In addition, the inhibition in vivo at 10 mg/kg in the experiment with Mus musculus [5] fell in the range of 51 to 90.4%.
In turn, `O=C(NCc1ccccc1)N1CCc2ccccc2[C@@H]1c1ccccc1` came in with an Activity in the experiment with Mus musculus [1] of 96.3%. Besides, the inhibition in vivo at 100 mg/kg with Mus musculus [3] stood at 77.4%.
In the experiment with Mus musculus [1], `Cc1cccc(NC(=O)N2CCc3ccccc3[C@@H]2c2ccccc2)c1` showed an Activity of 99.2%. Besides, the inhibition in vivo at 100 mg/kg with Mus musculus [3] amounted to 86.4%.

As usually defined, the inhibition in vivo is the drop in the measured response relative to a control, in per cent. For orientation: IC50 means the concentration that gives 50% inhibition. Read a low IC50 as higher potency.
